Assay results reported in US12102638B2 (Urovant Sciences GmbH, priority 2017, dated 2024).
Values joined by “and” are separate entries in the source; they are usually repeats but may differ in a detail not shown here. Equal values may be shown once. Read-outs that look alike come from different tables or passages of the source.

What was measured:
β1-AR = target: T1, β1-AR (Homo sapiens, UniProt P08588); test: competition binding assay, membranes with recombinant β1-AR
T1 construct: expressed in transfected cells; membranes used
T1 sequence (P08588 whole entry): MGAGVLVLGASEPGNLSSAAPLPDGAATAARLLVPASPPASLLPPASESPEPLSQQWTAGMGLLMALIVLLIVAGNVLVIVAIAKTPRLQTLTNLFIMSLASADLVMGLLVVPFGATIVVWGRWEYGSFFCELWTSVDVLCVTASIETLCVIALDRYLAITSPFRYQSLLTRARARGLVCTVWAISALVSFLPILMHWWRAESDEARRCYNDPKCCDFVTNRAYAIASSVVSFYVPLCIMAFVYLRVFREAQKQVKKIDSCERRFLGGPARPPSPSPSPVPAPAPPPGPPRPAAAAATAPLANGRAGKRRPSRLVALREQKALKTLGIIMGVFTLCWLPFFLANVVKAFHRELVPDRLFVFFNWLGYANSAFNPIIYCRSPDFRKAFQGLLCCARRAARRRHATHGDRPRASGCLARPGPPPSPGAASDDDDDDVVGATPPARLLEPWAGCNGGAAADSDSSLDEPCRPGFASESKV

[1] = single rising oral dose Phase 1 pharmacokinetics in healthy subjects; assay type: in vivo, human; details: for AUC(0-t): read-out: AUC0-24
Procedure: All subjects were healthy adults. […] Systemic exposures were greater than dose proportional up to 600 mg.

[2] = effect of food on oral absorption (single and multiple dose); assay type: in vivo, human; details: for mean AUC0-24 with food compared to fasted state / mean Cmax with food compared to fasted state: 150 mg multiple oral doses, middle-aged and elderly females
[3] = single-dose PK in patients with renal impairment; assay type: in vivo, human; details: for CL/F, geometric LS mean / Fe[urine]48 hr, geometric mean: single 100 mg
From the text: The relationship between clearance and renal function was modeled using linear regression.

[4] = drug interaction studies: effect of co-administered medication on vibegron PK; assay type: in vivo, human
From the text: However, these interactions are not expected to be clinically significant.

healthy subjects = test: thorough QT single oral dose study; assay type: in vivo, human
[5] = drug interaction study of vibegron 75 mg and rifampin; details: for CL/F, geometric mean / V/F, geometric mean: single 75 mg
[6] = male, human, plasma, oral, 50 mg, single 50 mg, healthy young males
[7] = male, human, plasma, oral, 50 mg, single 50 mg, healthy young males, Japanese
[8] = 150 mg multiple doses, middle-aged females, Day 14
[9] = single 50 mg, Japanese young males
[10] = single 50 mg, non-Japanese young males
[11] = Healthy Matched Control Subjects
[12] = multiple doses of 240 mg or 180 mg diltiazem

O=C(Nc1ccc(C[C@@H]2CC[C@H]([C@H](O)c3ccccc3)N2)cc1)[C@@H]1CCc2nccc(=O)n21 [vibegron, (6S)—N-[4-[[(2S,5R)-5-[(R)-hydroxy(phenyl)methyl]pyrrolidin-2-yl]methyl]phenyl]-4-oxo-7,8-dihydro-6H-pyrrolo[1,2-a]pyrimidine-6-carboxamide]
binding to β1-AR (β1-AR): does not bind
Cmax [1, 6]: 31.7 ± 35 ng/mL
Cmax [1, 7]: 62.2 ± 20.4 ng/mL
AUC(0-t) [1, 7]: 385 ± 136 ng·h/mL
AUC(0-inf) ([1]; male, human, plasma, oral, 50 mg, single 50 mg, healthy young males, Japanese, read-out: AUC0-inf): 885 ± 241 ng·h/mL
AUC(0-t) [1, 6]: 219 ± 123 ng·h/mL
AUC(0-inf) ([1]; male, human, plasma, oral, 50 mg, single 50 mg, healthy young males, read-out: AUC0-inf): 551 ± 262 ng·h/mL
t1/2, harmonic mean ± pseudo SD ([1]; single 20 mg, healthy young males): 64.2 ± 12.6 h
t1/2, harmonic mean ± pseudo SD ([1]; single 50 mg, Elderly Male and Female): 92 h and 92.1 ± 15.9 h
t1/2, harmonic mean ± pseudo SD ([1]; single 50 mg, healthy young males, Japanese): 64.4 ± 8.7 h
t1/2, harmonic mean ± pseudo SD ([1]; single 100 mg, healthy young males): 72.8 ± 10.8 h
AUC(0-inf) ([1]; single 150 mg, healthy young males): 2270 ± 911 ng·h/mL
t1/2, harmonic mean ± pseudo SD ([1]; single 200 mg, healthy young males): 75.3 ± 9.1 h
t1/2, harmonic mean ± pseudo SD ([1]; single 200 mg, healthy young males, Japanese): 58.4 ± 9.0 h
t1/2, harmonic mean ± pseudo SD ([1]; single 300 mg, healthy young males, Japanese): 59.7 ± 9.2 h
t1/2, harmonic mean ± pseudo SD ([1]; single 450 mg, healthy young males): 60.0 ± 9.4 h
reduction in mean AUC0-24hr with food vs fasted [2, 8]: 20%
reduction in mean Cmax with food vs fasted [2, 8]: 47%
mean AUC0-24 with food compared to fasted state ([2]; Day 1): ~42%
mean Cmax with food compared to fasted state ([2]; Day 1): 59%
mean AUC0-24 with food compared to fasted state ([2]; Day 14): ~20%
mean Cmax with food compared to fasted state ([2]; Day 14): 43%
Ctrough ([2]; multiple dose 150 mg, day 14, Non-Japanese middle-aged females, Fasted): 62.7 ± 12.4 ng/mL
reduction in AUC0-inf with standard Japanese breakfast [2, 9]: 37%
reduction in Cmax with standard Japanese breakfast [2, 9]: 52%
delay in Tmax with high-fat meal vs fasted [2, 10]: ~1 h
reduction in AUC0-inf with high-fat meal vs fasted [2, 10]: 46%
reduction in Cmax with high-fat meal vs fasted [2, 10]: 67%
AUC0-inf higher compared to healthy matched control ([3]; mild renal impairment): 49%
CLR reduced compared to healthy matched control ([3]; mild renal impairment): 39%
Cmax higher compared to healthy matched control ([3]; mild renal impairment): 96%
AUC0-inf higher compared to healthy matched control ([3]; moderate renal impairment): 106%
CLR reduced compared to healthy matched control ([3]; moderate renal impairment): 65%
Cmax higher compared to healthy matched control ([3]; moderate renal impairment): 68%
mean increase in AUC compared to subjects with normal renal function ([3]; moderate renal impairment): 1.6 fold
AUC0-inf higher compared to healthy matched control ([3]; severe renal impairment): 83%
CLR reduced compared to healthy matched control ([3]; severe renal impairment): 82%
Cmax higher compared to healthy matched control ([3]; severe renal impairment): 42%
CL/F, geometric LS mean [3, 11]: 64.9 L/h
Fe[urine]48 hr, geometric mean [3, 11]: 7.9%
CL/F, geometric LS mean ([3]; Mild Renal Impairment): 43.6 L/h
Fe[urine]48 hr, geometric mean ([3]; Mild Renal Impairment): 8.5%
CL/F, geometric LS mean ([3]; Moderate Renal Impairment): 31.5 L/h
Fe[urine]48 hr, geometric mean ([3]; Moderate Renal Impairment): 5.5%
CL/F, geometric LS mean ([3]; Severe Renal Impairment): 35.5 L/h
Fe[urine]48 hr, geometric mean ([3]; Severe Renal Impairment): 2.1%
CL/F increase per one mL/min/1.73 m^2 increase in eGFR ([3]; slope of linear regression): ~0.8%
effect of Tolterodine ER 4 mg on the pharmacokinetics of vibegron ([4]; in vivo): no effect
GM vibegron AUC0-inf increase [4, 12]: 63%
GM vibegron Cmax increase [4, 12]: 68%
AUC, mean ± SD (healthy subjects; single 200 mg): 2430 ± 974 ng·h/mL
Maximum Mean Placebo Corrected Change from Baseline Diastolic BP (healthy subjects; single 200 mg): 2.42 mmHg
Maximum Mean Placebo Corrected Change from Baseline RR interval (healthy subjects; single 200 mg): -84.36 ms
Maximum Mean Placebo Corrected Change from Baseline Systolic BP (healthy subjects; single 200 mg): 2.20 mmHg
upper limits of the 90% CIs of all QTcF mean differences from placebo (healthy subjects; single 200 mg and 400 mg): < 10 ms
QTcF LS mean difference from placebo (healthy subjects; single 200 mg, 0.5 hour): 2.90 ms
QTcF change from baseline, LS mean (healthy subjects; single 200 mg, 0.5 hour): 1.90 ms
QTcF change from baseline, LS mean (healthy subjects; single 200 mg, 1 hour): 4.87 ms
QTcF LS mean difference from placebo (healthy subjects; single 200 mg, 1 hour (maximum)): 4.98 (3.07, 6.88) msec and 4.98 msec
QTcF LS mean difference from placebo (healthy subjects; single 200 mg, 2 hour): 2.14 ms
QTcF change from baseline, LS mean (healthy subjects; single 200 mg, 2 hour): 2.06 ms
QTcF LS mean difference from placebo (healthy subjects; single 200 mg, 3 hour): 0.40 ms
QTcF change from baseline, LS mean (healthy subjects; single 200 mg, 3 hour): 1.14 ms
QTcF LS mean difference from placebo (healthy subjects; single 200 mg, 4 hour): -0.83 ms
QTcF change from baseline, LS mean (healthy subjects; single 200 mg, 4 hour): -0.40 ms
QTcF LS mean difference from placebo (healthy subjects; single 200 mg, 6 hour): -1.26 ms
QTcF change from baseline, LS mean (healthy subjects; single 200 mg, 6 hour): -6.89 ms
QTcF LS mean difference from placebo (healthy subjects; single 200 mg, 8 hour): -1.24 ms
QTcF change from baseline, LS mean (healthy subjects; single 200 mg, 8 hour): -9.59 ms
QTcF LS mean difference from placebo (healthy subjects; single 200 mg, 10 hour): -2.67 ms
QTcF change from baseline, LS mean (healthy subjects; single 200 mg, 10 hour): -8.82 ms
QTcF LS mean difference from placebo (healthy subjects; single 200 mg, 12 hour): -3.72 ms
QTcF change from baseline, LS mean (healthy subjects; single 200 mg, 12 hour): -6.82 ms
QTcF LS mean difference from placebo (healthy subjects; single 200 mg, 23.5 hour): 0.38 ms
QTcF change from baseline, LS mean (healthy subjects; single 200 mg, 23.5 hour): -2.15 ms
AUC, mean ± SD (healthy subjects; single 400 mg): 6800 ± 2300 ng·h/mL
Maximum Mean Placebo Corrected Change from Baseline Diastolic BP (healthy subjects; single 400 mg): 3.99 mmHg
Maximum Mean Placebo Corrected Change from Baseline RR interval (healthy subjects; single 400 mg): -162.45 ms
Maximum Mean Placebo Corrected Change from Baseline Systolic BP (healthy subjects; single 400 mg): 3.97 mmHg
QTcF LS mean difference from placebo (healthy subjects; single 400 mg, 0.5 hour): 3.37 ms
QTcF change from baseline, LS mean (healthy subjects; single 400 mg, 0.5 hour): 2.37 ms
QTcF change from baseline, LS mean (healthy subjects; single 400 mg, 1 hour): 4.49 ms
QTcF LS mean difference from placebo (healthy subjects; single 400 mg, 1 hour (maximum)): 4.60 (2.71, 6.48) msec and 4.60 msec
QTcF LS mean difference from placebo (healthy subjects; single 400 mg, 2 hour): 0.81 ms
QTcF change from baseline, LS mean (healthy subjects; single 400 mg, 2 hour): 0.73 ms
QTcF LS mean difference from placebo (healthy subjects; single 400 mg, 3 hour): -1.04 ms
QTcF change from baseline, LS mean (healthy subjects; single 400 mg, 3 hour): -0.30 ms
QTcF LS mean difference from placebo (healthy subjects; single 400 mg, 4 hour): -2.96 ms
QTcF change from baseline, LS mean (healthy subjects; single 400 mg, 4 hour): -2.53 ms
QTcF LS mean difference from placebo (healthy subjects; single 400 mg, 6 hour): -2.70 ms
QTcF change from baseline, LS mean (healthy subjects; single 400 mg, 6 hour): -8.33 ms
QTcF LS mean difference from placebo (healthy subjects; single 400 mg, 8 hour): -3.24 ms
QTcF change from baseline, LS mean (healthy subjects; single 400 mg, 8 hour): -11.60 ms
QTcF LS mean difference from placebo (healthy subjects; single 400 mg, 10 hour): -4.14 ms
QTcF change from baseline, LS mean (healthy subjects; single 400 mg, 10 hour): -10.29 ms
QTcF LS mean difference from placebo (healthy subjects; single 400 mg, 12 hour): -4.00 ms
QTcF change from baseline, LS mean (healthy subjects; single 400 mg, 12 hour): -7.10 ms
QTcF LS mean difference from placebo (healthy subjects; single 400 mg, 23.5 hour): -0.34 ms
QTcF change from baseline, LS mean (healthy subjects; single 400 mg, 23.5 hour): -2.87 ms
effect on QTc or blood pressure (healthy subjects; thorough QT study): no clinically meaningful effect on QTc or blood pressure
tolerability of vibegron and rifampin ([5]; healthy male and female subjects): well tolerated
CL/F, geometric mean ([5]; Vibegron + Rifampin 600 mg QD): 57.3 L/h
V/F, geometric mean ([5]; Vibegron + Rifampin 600 mg QD): 6140 L
CL/F, geometric mean ([5]; Vibegron alone): 57.2 L/h
V/F, geometric mean ([5]; Vibegron alone): 6930 L
subjects with an AE related to study drug ([5]; vibegron 75 mg and rifampin 600 mg QD): 15%
